# Entries after “also recorded” stand apart in the source; their conditions may differ. Like-named read-outs stand apart in the source and are kept apart here. [ ]: non-standard residue; d: D form. pGlu = O=C1CC[C@@H](C(=O)O)N1
# Tests used:
# [1] = tested on: FSH release from hemi-anterior pituitaries of adult male rats; assay: FSH release in vitro, incubation with hemi-anterior pituitaries of male rats (RIA); type: cell-based, rat; conditions: for FSH (ng/ml) / FSH: 3 hr incubation
# Description: (§1) Adult male and female Sprague-Dawley rats (Holtzmann, Madison, Wis.; 200-250 g) were housed two per cage under controlled conditions of temperature (23-25° C.) and lighting (on from 0500 to 1700 hr). The animals had free access to a pellet diet and to tap water.
# (§2) After acclimatization for 5 or more days in the vivarium, male rats were killed by decapitation. Following removal of the posterior lobe, the anterior pituitary (AP) was bisected longitudinally, and each AP was incubated in a tube containing 0.5 ml Krebs-Ringer bicarbonate (5 mM ascorbic acid; pH 7.4) buffer (KRB) in an atmosphere of 95% O2/5% CO2 in a Dubnoff shaker (50 cycles per min) for a period of 60 min. Following this pre-incubation period, the APs were incubated for 3 hr in fresh KRB buffer alone (control), or in KRB containing one of various concentrations of synthetic mammalian (m)-LHRH, l-LHRH-III, l-LHRH-I, chicken (c)-LHRH-II, or salmon (s)-LHRH. The medium was then aspirated, and was stored frozen at −20° C. until radio-immunoassays (RIA) for FSH and LH were conducted. FSH and LH were measured using kits supplied by the National Institute of Arthritis Digestive Diabetes and Kidney Disease; hormone values were expressed in terms of NIH-rFSH-RP-2 and NIH-rLH-RP-3 standards. The experiments were repeated twice. The inter- and intra-assay coefficients of variation for FSH assays were 7.5% and 5.2%, respectively; and were 6.5% and 4.8% for LH assays.
# [2] = tested on: LH release from hemi-anterior pituitaries of adult male rats; assay: LH release in vitro, incubation with hemi-anterior pituitaries of male rats (RIA); type: cell-based, rat; conditions: for LH / LH (ng/ml): 3 hr incubation
# Description: as §1, §2
# [3] = tested on: FSH or LH release; conditions: Yu et al., Brain Res. Bull. 1990; cited from earlier work
# [4] = tested on: plasma FSH; assay: FSH release in vivo, ovariectomized estrogen/progesterone-treated female rats, intravenous injection; design: species or system rat; conditions: for Change in FSH from baseline, 10 minutes in post-injection (ng/ml): 10 minutes post-injection, saline −3.85 ± 0.82
# Description: as §1
# (§3) Female rats were ovariectomized under anesthesia with isoflurane 4 weeks prior to the in vivo experiments. Three days before blood sampling, each ovariectomized rat was injected subcutaneously with 50 μg estradiol benzoate (Sigma Chemical Co., St. Louis, Mo.) dissolved in 0.1 ml sesame oil, and 25 mg progesterone (Eli Lilly, Indianapolis, Ind.) dissolved in 0.5 ml sesame oil. One day prior to testing, each animal was implanted with a jugular-atrial catheter. On the morning of testing, polyethylene tubing (PE-50) was connected to the distal end of the jugular-atrial catheter on the rat's dorsum to facilitate blood sampling and intravenous injection. Animals were acclimatized one hour before initial blood samples were taken. Heparinized blood samples ([…]) were collected just before, and at 10, 30, and 60 minutes after injection of 0.5 ml isotonic saline or l-LHRH-III (10 or 100 pmole) in 0.5 ml isotonic saline. After removal of each blood sample, an equal volume of isotonic saline was administered to maintain blood volume.
# [5] = tested on: plasma LH; assay: LH release in vivo, ovariectomized estrogen/progesterone-treated female rats, intravenous injection; design: species or system rat; conditions: for Change in LH from baseline, 10 minutes post-injection: saline −0.070 ± 0.122
# Description: as §1, §3
# [6] = tested on: Petromryzon marinus (lamprey) ovaries; conditions: Sower et al., Endocrinology 1993; cited from earlier work
# [7] = tested on: selective FSH-releasing activity; assay: In vivo screening of known LHRH's from various species for selective FSH-releasing activity; conditions: unpublished data of the applicant's laboratory
# Text: Our laboratory also screened known LHRH's from various species for selective FSH-releasing activity; and we also evaluated the activity of 25 analogs of LHRH in in vivo assays.
# [8] = Table 2, 10^−5M, KRB control 97.7 ± 20.4
# [9] = Table 2, 10^−6M, KRB control 97.7 ± 20.4
# [10] = Table 3, 10^−5M, KRB control 139.3 ± 16.9
# [11] = Table 3, 10^−6M, KRB control 139.3 ± 16.9
# [12] = Table 4, 10^−6M, KRB control 157.5 ± 13.2
# [13] = Table 4, 10^−7M, KRB control 157.5 ± 13.2
# [14] = Table 4, 10^−8M, KRB control 157.5 ± 13.2
# [15] = Table 5, 10^−6M, KRB control 149.3 ± 17.0
# [16] = Table 5, 10^−7M, KRB control 149.3 ± 17.0
# [17] = Table 5, 10^−8M, KRB control 149.3 ± 17.0
# [18] = 10 or 100 pmole intravenous, versus saline control
substance,measurement,setting,value
"[pGlu]HWSLEWKPG-NH2 [l-LHRH-I, reference compound]",FSH release in vitro (result in words),[1],small but statistically significant release of FSH; also recorded: minimal potency to release either FSH or LH
same,FSH (ng/ml),[1]; [8],**178.2 ± 17.0 ng/ml
same,FSH (ng/ml),[1]; [9],*164.0 ± 29.3 ng/ml
same,LH release in vitro (result in words),[2],inactive; also recorded: minimal potency to release either FSH or LH
same,LH,[2]; [10],120.4 ± 8.1 ng/mL
same,LH,[2]; [11],134.1 ± 23.2 ng/mL
same,activity in releasing FSH or LH in rats (result in words),[3],relatively low activity in releasing either FSH or LH
pGlu-His-Trp-Ser-His-Asp-Trp-Lys-Pro-Gly-NH2 (XHWSHDWKPX; pyroGlu; C-terminal amide) [l-LHRH-III],FSH release in vitro (result in words),[1],approximately equipotent toward releasing FSH
same,FSH (ng/ml),"[1]; Table 2, 10^−4M, KRB control 97.7 ± 20.4",****368.6 ± 40.9 ng/ml
same,FSH (ng/ml),[1]; [8],**283.0 ± 60.8 ng/ml
same,FSH (ng/ml),[1]; [9],**278.2 ± 40.9 ng/ml
same,FSH (ng/ml),"[1]; Table 2, 10^−7M, KRB control 97.7 ± 20.4",***213.0 ± 17.9 ng/ml
same,FSH (ng/ml),"[1]; Table 2, 10^−8M, KRB control 97.7 ± 20.4",**255.7 ± 42.4 ng/ml
same,FSH (ng/ml),"[1]; Table 2, 10^−9M, KRB control 97.7 ± 20.4",*228.3 ± 52.5 ng/ml
same,concentration of maximal effect on FSH release,"[1]; Table 2 experiment, levelled off through 10^−4 M",about 10^−6 M
same,minimal effective concentration (MEC) for FSH release,"[1]; Table 2 experiment, lowest concentration tested",≤ 10^−9 M
same,FSH,[1]; [12],215.0 ± 38.0 ng/mL
same,FSH (ng/ml),[1]; [13],*203.2 ± 16.4 ng/ml
same,FSH (ng/ml),[1]; [14],*249.3 ± 31.3 ng/ml
same,FSH,"[1]; Table 4, 10^−9M, KRB control 157.5 ± 13.2",196.3 ± 21.2 ng/mL
same,MEC for a statistically significant release of FSH relative to c-LHRH-II,[1]; Table 4 experiment,two orders of magnitude lower
same,LH release in vitro (result in words),[2],much weaker effect on LH release; also recorded: no LH-releasing activity
same,LH (ng/ml),"[2]; Table 3, 10^−4M, KRB control 139.3 ± 16.9",**236.6 ± 19.3 ng/ml
same,LH (ng/ml),[2]; [10],*202.9 ± 31.2 ng/ml
same,LH (ng/ml),[2]; [11],*233.6 ± 33.8 ng/ml
same,LH,"[2]; Table 3, 10^−7M, KRB control 139.3 ± 16.9",179.9 ± 28.4 ng/mL
same,LH,"[2]; Table 3, 10^−8M, KRB control 139.3 ± 16.9",165.7 ± 26.6 ng/mL
same,LH,"[2]; Table 3, 10^−9M, KRB control 139.3 ± 16.9",171.8 ± 27.3 ng/mL
same,concentrations active on LH release,[2]; Table 3 experiment,10^−6-10^−4 M
same,LH,[2]; [15],176.0 ± 9.3 ng/mL
same,LH,[2]; [16],182.7 ± 13.7 ng/mL
same,LH,[2]; [17],163.2 ± 6.5 ng/mL
same,LH,"[2]; Table 5, 10^−9M, KRB control 149.3 ± 17.0",158.7 ± 10.2 ng/mL
same,"Change in FSH from baseline, 10 minutes in post-injection (ng/ml)",[4]; 10 pmole intravenous,**−0.75 ± 0.37 ng/ml
same,"Change in FSH from baseline, 10 minutes in post-injection (ng/ml)",[4]; 100 pmole intravenous,**−0.43 ± 0.61 ng/ml
same,FSH release in vivo (result in words),[4]; [18],"increase in FSH in vivo (P<0.01) within ten minutes; also recorded: highly significant increase in plasma FSH 10 minutes after injection, an effect that vanished by 30 minutes post-injection; also recorded: slightly greater effect at 10 minutes that was maintained 30 minutes after injection; also recorded: caused the release of FSH in vivo, but not LH"
same,"Change in LH from baseline, 10 minutes post-injection",[5]; 10 pmole intravenous,-0.022 ± 0.078 ng/mL
same,"Change in LH from baseline, 10 minutes post-injection",[5]; 100 pmole intravenous,0.097 ± 0.077 ng/mL
same,LH release in vivo (result in words),[5]; [18],no significant increase in LH; also recorded: Neither the 10 pmole nor the 100 pmole dose of l-LHRH-III produced a statistically significant difference in LH levels
same,estradiol and progesterone release from lamprey ovaries (result in words),[6],stimulated estradiol and progesterone release
"pGlu-His-Trp-Ser-His-Gly-Trp-Tyr-Pro-Gly-NH2 (XHWSHGWYPX; HELM PEPTIDE1{[Glp].H.W.S.H.G.W.Y.P.G.[am]}$$$$V2.0; SMILES NC(=O)CNC(=O)[C@@H]1CCCN1C(=O)[C@H](Cc1ccc(O)cc1)NC(=O)[C@H](Cc1c[nH]c2ccccc12)NC(=O)CNC(=O)[C@H](Cc1c[nH]cn1)NC(=O)[C@H](CO)NC(=O)[C@H](Cc1c[nH]c2ccccc12)NC(=O)[C@H](Cc1c[nH]cn1)NC(=O)[C@@H]1CCC(=O)N1) [c-LHRH-II, reference compound]",FSH release in vitro (result in words),[1],low potency
same,FSH (ng/ml),[1]; [12],***263.7 ± 17.8 ng/ml
same,FSH,[1]; [13],209.3 ± 44.0 ng/mL
same,FSH,[1]; [14],123.7 ± 18.0 ng/mL
same,concentration significantly increasing FSH release,"[1]; Table 4 experiment, highest concentration tested",10^−6 M
same,LH release in vitro (result in words),[2],equivalent LH-releasing activity to that of m-LHRH
same,LH (ng/ml),[2]; [15],*239.0 ± 31.7 ng/ml
same,LH (ng/ml),[2]; [16],*216.3 ± 17.7 ng/ml
same,LH (ng/ml),[2]; [17],*199.3 ± 13.6 ng/ml
same,LH release in vitro (result in words),[2]; listed as Chicken (c) LHRH-II,stimulated LH release
same,selectivity for FSH release in vivo (result in words),[7],slight selectivity for FSH release
same,selectivity for FSH release in vivo (result in words),[7]; listed as chicken (c) LHRH-II,slightly preferential FSH-releasing activity in vivo
"pGlu-His-Trp-Ser-Tyr-Gly-Trp-Leu-Pro-Gly-NH2 (XHWSYGWLPX; HELM PEPTIDE1{[Glp].H.W.S.Y.G.W.L.P.G.[am]}$$$$V2.0; SMILES CC(C)C[C@H](NC(=O)[C@H](Cc1c[nH]c2ccccc12)NC(=O)CNC(=O)[C@H](Cc1ccc(O)cc1)NC(=O)[C@H](CO)NC(=O)[C@H](Cc1c[nH]c2ccccc12)NC(=O)[C@H](Cc1c[nH]cn1)NC(=O)[C@@H]1CCC(=O)N1)C(=O)N1CCC[C@H]1C(=O)NCC(N)=O) [s-LHRH, reference compound]",FSH,[1]; [12],203.2 ± 39.2 ng/mL
same,FSH (ng/ml),[1]; [13],*233.0 ± 37.4 ng/ml
same,FSH release in vitro (result in words),[1]; listed as Salmon (s)-LHRH,stimulated the release of both FSH and LH
same,FSH release in vitro (result in words),[1]; listed as Salmon LHRH,low potency
same,LH release in vitro (result in words),[2],stimulated the release of both FSH and LH
same,LH,[2]; [15],186.2 ± 13.6 ng/mL
same,LH (ng/ml),[2]; [16],*230.8 ± 38.8 ng/ml
